# PubChem BioAssay AID179 (DTP/NCI, 2004)
# Active and inactive are the calls of the source.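 The calls were made as follows: active = compounds giving half or more protection of infected cells from virus-caused growth loss, again on retest; inactive = the rest.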 *1 amine or outer side, *2 acyl side, *3 side chain or, on linkers, in order; H or OH if unused. Where a SMILES comes first, the peptide text is derived from it. [ ]: non-standard residue; d: D form. The star is where a group is joined. X7 = NC(N)=NCC(O)CC(N[*:1])C(=O)[*:2]; X11 = Clc1c(Cl)c(Cl)c(O*)c(Cl)c1Cl; Orn = NCCC[CH](N)C(=O)O; Boc = CC(C)(C)OC(=O)*; OBn = c1ccc(CO*)cc1; Bn = c1ccc(C*)cc1
# System: CEM cells HIV-1 protection, formazan growth assay
# Assay: NCI AIDS Antiviral Assay
# Details: for IC50: measured here: growth of uninfected CEM cells
# Method in brief: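 Human CEM cells, uninfected and HIV-1-infected, received five drug concentrations, and growth was read by soluble formazan assay. Compounds giving at least 50% protection were retested; reproducible 100% protection defined confirmed active.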
Structure (SMILES),EC50,IC50,outcome
CC(=O)OC1CCC(OC(C)=O)[C@H]2[C@@H]1[C@@H]1S[C@H]2c2ccccc21 (stereo partly drawn),> 200 µM,42.7 µM,
C=CCOc1ccc(/C(N=Nc2ccccc2)=N/NC(=O)c2ccccc2)cc1OC,> 200 µM,107 µM,
COc1cc(OC)c2c(=O)c3cccc(C)c3n(C)c2c1,> 200 µM,95.5 µM,
CC1CC[Si](C)(C)CC12C(=O)NC(=O)NC2=O (stereo not drawn),> 200 µM,> 200 µM,
COC(=O)C1=COC(C)C2CN3CCC4(C(=O)Nc5ccccc54)C3CC12 (stereo not drawn),,,inactive
CC1(C)OCC([C@H]2CC23SCCCS3)O1 (stereo partly drawn),> 200 µM,> 200 µM,
COC(=O)C1C(=O)CC(C)(O)C(C(=O)OC)C1c1ccc(N(C)C)cc1 (stereo not drawn),> 200 µM,> 200 µM,
COc1ccc(Nc2nc3cc(C(F)(F)F)ccc3nc2-c2ccccc2)cc1OC,> 30.9 µM,> 30.9 µM,
CO[C@H]1C[C@@H]2CC[C@@H](C)[C@@](O)(O2)C(=O)C(=O)N2CCCC[C@H]2C(=O)O[C@H]([C@H](C)C[C@@H]2CC[C@@H](O)[C@H](OC)C2)CC(=O)[C@H](C)C=C(C)[C@@H](O)[C@@H](OC)C(=O)[C@H](C)C[C@H](C)/C=C/C=C/C=C1C,> 14.1 µM,7.59 µM,
O=C1c2ccccc2C2C1N2C(=O)C(F)(F)F (stereo not drawn),> 148 µM,24.5 µM,
COc1ccc(OC)c2c1C1CCC(=O)N1CN2C(C)=O (stereo not drawn),,,inactive
COc1ccc(NC(=O)CSc2nnc(-c3ccc(NC(C)=O)cc3)o2)cc1,> 33.9 µM,19.1 µM,
COC(=O)C1=NC(=N)N=C(C(=O)OC)C12C(=O)Cc1ccccc12 (stereo not drawn),339 µM,398 µM,
COc1ccc2c(c1)c(C(=O)O)cc(=O)n2C,> 200 µM,> 200 µM,
CC(C)(C)NC(=O)Nc1ccccn1,> 200 µM,> 200 µM,
O=C1CS(=O)(=O)C(c2ccccc2F)N1N1C(=O)CS(=O)(=O)C1c1ccccc1F (stereo not drawn),> 151 µM,> 151 µM,
CC(/C=C/c1ccccc1)=N/NS(=O)(=O)c1ccc([N+](=O)[O-])cc1,> 15.1 µM,> 15.1 µM,
Cc1ccc(N2C=[N+](C)c3ccc(C)cc3C2)cc1,> 200 µM,33.9 µM,
OC(CC(O)(C(F)(F)F)C(F)(F)F)c1cccs1 (stereo not drawn),> 200 µM,93.3 µM,
O=C(O)Cc1cccc2c1Oc1ccccc1S2,> 5620 µM,204 µM,
COC(=O)C(=O)C(C(=O)OC)C(=O)C(=O)Nc1c(C)cccc1C (stereo not drawn),> 204 µM,> 204 µM,

Structure (SMILES),EC50,IC50,outcome
O=C(O)CCc1c2ccc(=O)c(O)c-2oc2c(O)c(O)ccc12,85.1 µM,102 µM,
CC1(c2ccccc2)CCN(C2CC2)CO1 (stereo not drawn),> 200 µM,23.4 µM,
O=S(=O)(NC1CCC[C@H]1O)c1ccccc1 (stereo partly drawn),,,inactive
COc1ccc(S(=O)(=O)NNS(C)(=O)=O)cc1OC,> 40.7 µM,> 40.7 µM,
NCCCCN(CCCN)Cc1ccc2ccccc2c1,> 200 µM,72.4 µM,
CN(C)CCCOc1ccc(/C=C2/CCC/C(=C/c3ccc(OCCCN(C)C)cc3)C2=O)cc1,> 15.1 µM,1.05 µM,
CCN(CC)Cc1c2c(O)c3c(O)c(C)c4c(c3c1O)C(=O)C(C)(O/C=C/C(OC)C(C)C(OC(C)=O)C(C)C(O)C(C)C(O)C(C)/C=C/C=C(\C)C(=O)N2)O4 (stereo not drawn),> 200 µM,33.1 µM,
Cc1cnc(SCCN(C)C)nc1-c1ccc(-c2nc(SCCN(C)C)ncc2C)s1,> 13.5 µM,12.6 µM,
O=C(N/C(=C\c1ccc([N+](=O)[O-])cc1)c1nc2ccc(Cl)cc2[nH]1)c1ccccc1,,,inactive
NC(=O)C(=O)n1ncc(Cl)c(Cl)c1=O,> 30.9 µM,> 30.9 µM,
CO/N=C/c1cc(OC)c(OC)c(OC)c1,> 813 µM,> 813 µM,
CC(CC(C)[C@H]1CCC2[C@H]3C(CC(=O)[C@@]21C)[C@@]1(C)CCC(O)C[C@H]1C[C@@H]3O)C(=O)O (stereo partly drawn),> 200 µM,162 µM,
CC1(C)CC(C2CC(C)(C)CC(C)(C)[C@H]2O)[C@@H](O)C(C)(C)C1 (stereo partly drawn),> 12 µM,> 12 µM,
O=C1CCSSCCC(=O)NCCCN1,> 40.7 µM,> 40.7 µM,
O=S(O)CCCCCSSc1ccccc1,,,inactive
N#Cc1c(N2CCOCC2)[nH]c(=O)n(-c2ccccc2)c1=S,> 200 µM,> 200 µM,
CCN1C(=O)c2cc(OC)c(OC)cc2C(=O)C12OC(=O)c1cc3c(cc12)OCO3 (stereo not drawn),> 200 µM,93.3 µM,
COC(=O)C1(C(=O)OC)N=C(C)OC1c1ccoc1 (stereo not drawn),> 200 µM,> 200 µM,
CCOP(=O)(OCC)/C(C#N)=C\c1ccc(OC(C)=O)cc1,> 562 µM,> 562 µM,
NC(=O)/C(=N\NC(=O)c1cc2ccccc2cc1O)C1C(=O)N(c2ccccc2)N=C1N (stereo not drawn),> 219 µM,13.8 µM,
COc1ccc(NC(=O)CC(=O)N2N=C(N3c4ccccc4Sc4ccccc43)CC2c2ccccc2)cc1 (stereo not drawn),,,inactive

Structure (SMILES),EC50,IC50,outcome
CN1C2CC(=O)CC1[C@H](O)[C@@H]2O,> 200 µM,> 200 µM,
Cn1cc/c(=N\N=c2/ccn(C)c3ccccc23)c2ccccc21,> 115 µM,5.01 µM,
COc1ccc2c(c1OC)C13CCCC[C@H]1C(C2)[N+](C)(C)CC3 (stereo partly drawn),> 562 µM,> 562 µM,
Oc1ccc(/C=C/c2cc(O)cc3c2C(c2cc(O)cc4c2C(c2cc(O)cc(O)c2)C(c2ccc(O)cc2)O4)C(c2ccc(O)cc2)O3)cc1 (stereo not drawn),> 20.9 µM,10.5 µM,
COc1ccc(Br)c2c1CC(C(=O)O)CC2 (stereo not drawn),> 457 µM,234 µM,
CN1C(=O)[C@@H]2N(CSC2(C)C)C1=S,> 200 µM,> 200 µM,
O=C1C=CC2O[C@H](c3ccccc3)[C@H](O)C2O1 (stereo partly drawn),> 1070 µM,5.37 µM,
Cc1ccc(S(=O)(=O)N2CCSCCSCCN(S(=O)(=O)c3ccc(C)cc3)CCN(S(=O)(=O)c3ccc(C)cc3)CC2)cc1,> 14.1 µM,> 14.1 µM,
S=C(NNc1ccccc1)SSSC(=S)NNc1ccccc1,> 200 µM,26.3 µM,
O=c1[nH]c(=O)n(COCc2ccccc2)c2ccc(Br)cc12,> 200 µM,> 200 µM,
CC1=Nc2c(ccc3c2C(=O)c2ccccc2C3=O)NC(c2ccncc2)C1 (stereo not drawn),> 7.41 µM,> 7.41 µM,
O=C(c1ccccc1)[C@H]1Nc2ccc(Cl)cc2C2c3ccccc3CC21 (stereo partly drawn),> 14.5 µM,> 14.5 µM,
Cn1c(N)nc(-c2ccc(Cl)cc2)c1SSc1c(-c2ccc(Cl)cc2)nc(N)n1C,> 200 µM,> 200 µM,
CCOC(=O)C1=C(O)c2c(OC)ccc(OC)c2C(=O)C1=O,> 427 µM,> 427 µM,
CC(O)(CCCCCl)c1nc2ccccc2s1 (stereo not drawn),> 200 µM,60.3 µM,
CC[C@@H](C)[C@H]([C@H](CC(=O)N1CCC[C@@H]1[C@@H](OC)[C@H](C)C(=O)N[C@H](Cc1ccccc1)c1nccs1)OC)N(C)C(=O)[C@H](NC(=O)[C@@H](C(C)C)N(C)C)C(C)C,> 316 µM,0.1 µM,
CC1=CC(=O)C(C(O)(C(F)(F)F)C(F)(F)F)C(C)(C)C1 (stereo not drawn),> 200 µM,> 200 µM,
CC(O)C(NC(=O)C(CCCN)NC(=O)C(CC(O)CN=C(N)N)NC(=O)C(N)CCCN=C(N)N)C(=O)NC(CCCN)C(=O)NC(CC(O)CN=C(N)N)C(=O)NC(Cc1ccc(O)cc1)C(=O)O (stereo not drawn) (tested in a mixture with another compound) (H-R[X7][Orn]T[Orn][X7]Y-OH; configuration not given here),> 47.9 µM,39.8 µM,
C=C1CC23CC4C5C6(C)CC(O)CC57C(C2C(O)C1C(O)C37)N4C6 (stereo not drawn),,,inactive
CC(C)CC(NC(=O)C(CCC(=O)OCc1ccccc1)NC(=O)OC(C)(C)C)C(=O)NC(COCc1ccccc1)C(=O)NC(Cc1ccccc1)C(=O)Oc1c(Cl)c(Cl)c(Cl)c(Cl)c1Cl (stereo not drawn) (Boc-E(OBn)LS(Bn)F-X11; configuration not given here),> 200 µM,38.9 µM,
O=c1[nH]c2nccn2c(Cl)c1Br,> 200 µM,33.9 µM,

Structure (SMILES),EC50,IC50,outcome
C=CCCCC12CCCc3cccc(c31)NC2=S (stereo not drawn),> 200 µM,14.1 µM,
CC(C)(C)[Si](C)(C)OC[C@H]1O[C@@H](n2ccc(=O)[nH]c2=O)[C@H](O[Si](C)(C)C(C)(C)C)[C@@]12N[C@H](C(=O)O)CS2,> 200 µM,10 µM,
O=C(NCCOC(=O)OCCNC(=O)NC1CCCCC1)NC1CCCCC1,> 200 µM,> 200 µM,
CC(C)CCC[C@@H](C)C1CCC2[C@@H]3CC(OS(=O)(=O)O)C4C[C@@H](OC5OC(CO)C(O)C(O)C5O)CC[C@]4(C)C3CC[C@@]21C (stereo partly drawn),> 37.2 µM,6.03 µM,
Oc1ccc(O)c([P+](c2ccccc2)(c2ccccc2)c2ccccc2)c1,> 200 µM,30.2 µM,
[N-]=[N+]=C1C(=O)NCN=C1c1ccccc1,> 339 µM,> 339 µM,
Nc1nc(=S)c2c(ncn2CCO)[nH]1,> 324 µM,126 µM,
CSC(=NCCc1c[nH]c2ccccc12)NC#N,> 200 µM,> 200 µM,
CCOC(=O)C1(CC)OC12CCCCC2 (stereo not drawn),> 200 µM,> 200 µM,
CC(C)(CCCCC(C)(C)[N+](C)(C)C)[N+](C)(C)C,> 200 µM,> 200 µM,
NC(=S)N1N=C2c3ccccc3CC[C@@H]2[C@@H]1c1ccccc1,> 34.7 µM,6.03 µM,
Cc1nc2c(nc1C)C(=O)C(N(C)C)=CC2=O,,,inactive
CC1(O)C=CC2CCC1C2O (stereo not drawn),> 1620 µM,> 1620 µM,
COCC12CCC(OC)C34C5CC6(O)C(OC)CC(OC(C)=O)(C5C6OC(=O)c5ccccc5)C(C(OC)C13)C4N(C)C2 (stereo not drawn),,,inactive
COC(=O)C(=O)C(C(=O)C(=O)Nc1ccccc1C(N)=O)c1nc2ccc([N+](=O)[O-])cc2[nH]c1=O (stereo not drawn),> 525 µM,372 µM,
CC(=O)Nn1c(Cc2ccc(Cl)cc2)nn(C)c1=O,,,inactive
Clc1ccc(SSc2ccccc2)cc1,,,inactive
CCOC(=O)C1=C(C)C2C3C(=O)OC(=O)C3C1(C)C1C(=O)OC(=O)C21 (stereo not drawn),,,inactive
COC(=O)/C=C1/C2CC3CC(C2)C(O)C1C3 (stereo not drawn),,,inactive
Cc1ccc(/C(C#N)=C/c2ccc3c(c2)OCO3)cc1,> 200 µM,10 µM,
